From patent publication US20250082650A1, “COMBINED USE OF MULTIKINASE INHIBITOR” (TRANSTHERA SCIENCES (NANJING), INC., priority 2021, published 2025)

Columns and labels:
[1] = tested on: IDO-1 expression in Hela cells; assay: Regulation of IDO protein levels in Hela cells (western blot); type: cell-based; conditions: interferon 50 ng/mL, co-incubation 16 h, 10-10000 nM, FIG. 2
Description: Example 6: Study on Regulation of IDO Protein Levels in Hela Cells by the Compound of the Present Invention
Cells: Hela Cells from Cobioer.
Reagents: DMEM medium, fetal bovine serum, penicillin, streptomycin, […] from SinoBiological, protein loading buffer, RIPA protein lysis buffer, protease inhibitor, BCA protein content assay kit, trihydroxymethyl aminomethane, sodium dodecyl sulfate, ammonium persulfate, 30% Acry-Bis solution, phosphate buffer, Tween 20, bovine serum albumin, GAPDH antibody (rabbit) from CST company, IDO-1 antibody (rabbit) from CST, anti-rabbit secondary antibody from CST, and protein marker.
Cell culture and plating: Hela cells were cultured in a DMEM medium containing 10% fetal bovine serum and 1% penicillin-streptomycin double antibody and incubated in a water-jacketed incubator at 37° C. and 5% CO2. Subculture treatment was carried out in a 1:4 ratio. When the cells were in the exponential growth phase, the cells were harvested, counted, plated at a density of 5×10^5 cells/well in a 6-well cell culture plate, and cultured overnight. […]
Protein content assay and sample configuration: Protein content in each well was measured by using a BCA kit and Nanodrop, and according to the detection result, a sample loading buffer and a lysis buffer were added to adjust to a system of […] of protein/10 μL for sample loading of Western Blot detection. […]

[2] = tested on: mouse pancreatic cancer Pan02 subcutaneous homograft tumor; assay: In vivo pharmacodynamic study, Pan02 subcutaneous homograft tumor model, combination with PD-L1 antibody; conditions: Pan02 tumor-bearing C57BL/6 mice; Compound 1 7.5 mg/kg oral Qd; PD-L1 antibody 10 mg/kg IP Q3d; 25 days
Protocol: Example 9: In Vivo Pharmacodynamic Study of the Compound of the Present Invention Combined with PD-L1 on Mouse Pancreatic Cancer Pan02 Subcutaneous Homograft Tumor Model
Pan02 cells: mouse pancreatic cancer cells from ATCC.
(§1) C57BL/6 mice, 6- to 8-week-old, female, from Shanghai Slac Laboratory Animal Co., Ltd.
PD-L1 antibody: InVivoMAb anti-mouse PD-L1 (B7-H1), clone number: 10F.9G2 (IgG2b), company: BioXcell, Cat. No. BE0101
Pan02 cells were cultured in monolayer in vitro. When the cells were in the exponential growth phase, the cells were harvested, counted, and inoculated.
(§2) 0.06 mL of a cell suspension containing about 1×10^6 Pan02 cells was inoculated subcutaneously into the back skin of female C57BL/6 mice. The mice were grouped for administration when the average volume of tumors reached approximately 60 mm^3. Grouping method: Animals were weighed before administration and tumor volumes were measured. Grouping was designed in blocks according to the tumor volume, with 7 mice per group.
Administration was carried out as in Table 8 below.
(§3) Animals were monitored daily for health status and mortality, body weight and tumor volume were measured twice a week, and samples were collected after the last administration. The therapeutic effect of tumor volume was evaluated by TGI %, and the evaluation was conducted as shown in Example 5.

[3] = tested on: mouse B cell lymphoma A20 subcutaneous homograft tumor; assay: In vivo pharmacodynamic study, A20 subcutaneous homograft tumor model, combination with PD-L1 antibody; conditions: A20 tumor-bearing Balb/c mice; Compound 1 7.5 mg/kg oral Qd; PD-L1 antibody 10 mg/kg IP Q3d; 19 days
Protocol: Example 7: In Vivo Pharmacodynamic Study of the Compound of the Present Invention Combined with PD-L1 on Mouse B Cell Lymphoma A20 Subcutaneous Homograft Tumor Model
A20 cells: mouse B cell lymphoma cells from ATCC.
Balb/c mice, 6- to 8-week-old, female, from Zhejiang Vital River Laboratory Animal Technology Co., Ltd.
(§4) PD-L1 antibody: InVivoMAb anti-mouse PD-L1 (B7-H1), clone number: 10F.9G2 (IgG2b), company: BioXcell, Cat. No. BE0101.
A20 cells were cultured in monolayer in vitro. When the cells were in the exponential growth phase, the cells were harvested, counted, and inoculated.
as §2, with “0.04” for “0.06”, “6×10^5 A20” for “1×10^6 Pan02”, “Balb/c” for “C57BL/6”, “8” for “7”
Administration was carried out as in Table 4 below.
as §3

[4] = tested on: mouse colon cancer MC38 subcutaneous homograft tumor; assay: In vivo pharmacodynamic study, MC38 subcutaneous homograft tumor model, combination with PD-L1 antibody; conditions: MC38 tumor-bearing C57BL/6 mice; Compound 1 7.5 mg/kg oral Qd; PD-L1 antibody 5 mg/kg IP Q3d; 25 days
Protocol: Example 8: In Vivo Pharmacodynamic Study of the Compound of the Present Invention Combined with PD-L1 on Mouse Colon Cancer MC38 Subcutaneous Homograft Tumor Model
MC38 cells: mouse colon cancer cells from ATCC.
as §1, §4
MC38 cells were cultured in monolayer in vitro. When the cells were in the exponential growth phase, the cells were harvested, counted, and inoculated.
as §2, with “0.04 mL” for “0.06 mL”, “about 3×10^5 MC38” for “about 1×10^6 Pan02”, “with 8” for “with 7”
Administration was carried out as in Table 6 below.
as §3

[5] = tested on: mouse colon cancer cell CT26.wt subcutaneous homograft tumor; assay: In vivo pharmacodynamic study, CT26.wt subcutaneous homograft tumor model, combination with PD-1 antibody; conditions: CT26.wt tumor-bearing Balb/c mice, day 13; Compound 1 15 mg/kg PO QD; PD-1 antibody 10 mg/kg IP BIW; 1-14 days
Description: Example 5: In Vivo Pharmacodynamic Study of the Compound of the Present Invention Combined with PD-1 Antibody on Mouse Colon Cancer Cell CT26.Wt Subcutaneous Homograft Tumor Model
Test sample: compound 1 of the present invention, having a structure shown above.
CT26.wt cells: mouse colon cancer cells from the Cell Bank of the Chinese Academy of Sciences.
Balb/c mice, 6- to 8-week-old, female, from Beijing Vital River Laboratory Animal Technology Co., Ltd.
PD-1 antibody: InVivoMAb anti-mouse PD-1, clone number: RMP1-14, company: BioXcell, Cat. No. BE0146.
CT26.wt cells were cultured in monolayer in vitro under the condition of an RPMI1640 medium supplemented with 10% heat-inactivated fetal bovine serum and 1% penicillin-streptomycin double antibody, and the culture was carried out at 37° C. and 5% CO2. […] When the cells were in the exponential growth phase, the cells were harvested, counted, and inoculated.
0.1 mL of a cell suspension containing about 1×10^6 CT26.wt cells (cells suspended in serum-free basal RPMI1640 medium) was inoculated subcutaneously into the left back skin of female Balb/c mice. […] Grouping method: Animals were weighed before administration and tumor volumes were measured. […]
Animals were monitored daily for health status and mortality, body weight and tumor volume were measured twice a week, and samples were collected after the last administration. […]

endometrial cancer = conditions: PD-1 antibody combined with E7080, endometrial cancer, ASCO 2017 clinical data; cited from earlier work

Cc1[nH]nc2c1N=C(c1ccccc1Cl)c1cnc(N3CCOCC3)cc1N2 [Compound 1, 4-(5-(2-chlorophenyl)-3-methyl-2,10-dihydropyrazolo[4,3-b]pyrido[4,3-e][1,4]diazepin-8-yl)morpholine]
Expression of IDO-1 in Hela cells [1]: could effectively reduce the expression of IDO-1 | TGI [2]: 71% | Tumor volume [2]: 921 mm^3 | TGI [3]: 26% | Tumor volume [3]: 519 mm^3 | TGI [4]: 50% | Tumor volume [4]: 554 mm^3 | TGI (tumor volume inhibition rate) [5]: 48% | Tumor volume [5]: 1150 ± 142 mm^3

COc1cc2nccc(Oc3ccc(NC(=O)NC4CC4)c(Cl)c3)c2cc1C(N)=O [Compound E7080]
Control rate (endometrial cancer): 96%
